{"source": "patent US8663669B2", "about": "“Pesticide treatment of soils or substrates with sulphur compounds” (Arkema France, priority 2002, dated 2014)", "key": {"[1]": {"system": "termite (Reticulitermes santonensis)", "assay": "Insecticidal in vitro fumigation test on termites", "format": "in vivo", "conditions": "24 hours of fumigation, mortality counted at the end of 48 hours; 25° C.", "procedure": "Dead wood infested with termites was collected from the soil on ground occupied by a colony. This dead wood serves as breeding medium. The breeding is maintained at a constant 25° C. and a day/night 12:12 alternation.\nThe insects are removed in an amount of 2 soldiers per 28 workers.\nThe tests are carried out in hermetically closed glass jars having a volume of 3 L and containing the insects.\nThe product to be tested is introduced through a hole 2 mm in diameter with the aid of a micropipette and deposited on a filter paper (2×5 cm: Whatman No. 1) suspended at the centre of the jar where it migrates by capillarity and vaporizes rapidly. The hole is hermetically closed again as quickly as possible.\nThe jars are placed for 24 hours in an incubator under the same breeding conditions.\nAt the end of 24 hours, after a few instants of aeration, a first count is made and then the insects are placed again under breeding conditions for another 24 hours. The counting of the mortality is therefore carried out at the end of 48 hours. […] Each test is carried out on a population of 30 to 50 insects and is accompanied by a control without treatment. Several repeats are carried out with doses close to the LC50."}, "[2]": {"system": "eggs of nematodes (Meloidogyne arenaria)", "assay": "Ovicidal activity on the eggs of nematodes (number of hatchings)", "format": "in vivo", "procedure": "(§1) The breeding of the nematodes was carried out on tomato plants. The tests were carried out with, aqueous solutions of DMDS at 0.0001%, 0.1%, 1% and 5% by mass, of DPDS at 1%, 5% and 10% by mass, and of allicin at 0.0003%, 0.0015% and 0.003% by mass, compared with a control consisting of pure water, and repeated five times. The ovicidal activity was also evaluated according to the same modalities, by counting the number of hatchings after 5 to 20 days following exposure to the products."}, "[3]": {"system": "larvae of Meloidogyne arenaria", "assay": "Nematicidal in vitro test on second-stage juvenile larvae", "format": "in vivo", "conditions": "for Immobility rate after 48 h: 24 h in solution then 24 h in pure water", "procedure": "The second-stage juvenile larvae (the free and infesting stage) are immersed for 24 hours in the test solution and then the number of larvae paralysed are counted before transferring them into pure water for another 24 hours. At the end of the 48 hours which have thus elapsed, the larvae paralysed are again counted and the larvae truly dead are counted the next day.\nas §1"}, "[4]": {"system": "termite (Reticulitermes santonensis)", "conditions": "value given for comparison, not among the 3 products tested; cited from earlier work"}}, "data": [{"compound": "C=CCSSCC=C", "note": "[DADS, diallyldisulphide]", "values": [{"measurement": "LC50 (Probits method)", "setting": "[1]", "result": 0.011, "unit": "g × 24 h/m^3"}]}, {"compound": "CCCSSCCC", "note": "[DPDS, dipropyl disulphide]", "values": [{"measurement": "Ovicidal activity", "setting": "[2]; 1-10 % by mass", "result": "very high ovicidal activity"}, {"measurement": "Number of hatchings (cumulative)", "setting": "[2]; concentration by mass 1 %, D5, control 550", "result": 117}, {"measurement": "Number of hatchings (cumulative)", "setting": "[2]; concentration by mass 1 %, D8, control 810", "result": 183}, {"measurement": "Number of hatchings (cumulative)", "setting": "[2]; concentration by mass 1 %, D12, control 990", "result": 200}, {"measurement": "Number of hatchings (cumulative)", "setting": "[2]; concentration by mass 1 %, D15, control 1 030", "result": 200}, {"measurement": "Number of hatchings (cumulative)", "setting": "[2]; concentration by mass 1 %, D19, control 1 030", "result": 200}, {"measurement": "Number of hatchings (cumulative)", "setting": "[2]; concentration by mass 5 %, D5, control 550", "result": 67}, {"measurement": "Number of hatchings (cumulative)", "setting": "[2]; concentration by mass 5 %, D8, control 810", "result": 67}, {"measurement": "Number of hatchings (cumulative)", "setting": "[2]; concentration by mass 5 %, D12, control 990", "result": 67}, {"measurement": "Number of hatchings (cumulative)", "setting": "[2]; concentration by mass 5 %, D15, control 1 030", "result": 67}, {"measurement": "Number of hatchings (cumulative)", "setting": "[2]; concentration by mass 5 %, D19, control 1 030", "result": 67}, {"measurement": "Number of hatchings (cumulative)", "setting": "[2]; concentration by mass 10 %, D5, control 550", "result": 33}, {"measurement": "Number of hatchings (cumulative)", "setting": "[2]; concentration by mass 10 %, D8, control 810", "result": 33}, {"measurement": "Number of hatchings (cumulative)", "setting": "[2]; concentration by mass 10 %, D12, control 990", "result": 33}, {"measurement": "Number of hatchings (cumulative)", "setting": "[2]; concentration by mass 10 %, D15, control 1 030", "result": 33}, {"measurement": "Number of hatchings (cumulative)", "setting": "[2]; concentration by mass 10 %, D19, control 1 030", "result": 33}, {"measurement": "Reduction in the number of hatchings", "setting": "[2]; on the last day of observation", "result": "approximately 97%"}, {"measurement": "Concentration for total efficacy (100% mortality)", "setting": "[3]; by mass, aqueous solution", "result": "greater than or equal to 1%"}, {"measurement": "Mortality rate after 72 h", "setting": "[3]; concentration by mass 1 %", "result": 100, "unit": "%"}, {"measurement": "Immobility rate after 48 h", "setting": "[3]; concentration by mass 1 %", "result": 100, "unit": "%"}, {"measurement": "Immobility rate after 24 h", "setting": "[3]; concentration by mass 1 %, aqueous solution", "result": 89, "unit": "%"}, {"measurement": "Mortality rate after 72 h", "setting": "[3]; concentration by mass 5 %", "result": 100, "unit": "%"}, {"measurement": "Immobility rate after 48 h", "setting": "[3]; concentration by mass 5 %", "result": 100, "unit": "%"}, {"measurement": "Immobility rate after 24 h", "setting": "[3]; concentration by mass 5 %, aqueous solution", "result": 93, "unit": "%"}, {"measurement": "Mortality rate after 72 h", "setting": "[3]; concentration by mass 10 %", "result": 100, "unit": "%"}, {"measurement": "Immobility rate after 48 h", "setting": "[3]; concentration by mass 10 %", "result": 100, "unit": "%"}, {"measurement": "Immobility rate after 24 h", "setting": "[3]; concentration by mass 10 %, aqueous solution", "result": 95, "unit": "%"}, {"measurement": "Nematostatic and nematicidal activity", "setting": "[3]; concentration of greater than or equal to 1%", "result": "high nematostatic and nematicidal activity"}]}, {"compound": "C=CCS[S+]([O-])CC=C", "note": "(centres unmarked) [allicin, diallyl thiosulphinate]", "values": [{"measurement": "LC50 (Probits method)", "setting": "[1]", "result": 0.010, "unit": "g × 24 h/m^3"}, {"measurement": "Nematostatic and nematicidal activity", "setting": "[3]; at much lower concentrations (0.0003-0.003% by mass)", "result": "high nematostatic and nematicidal activity"}, {"measurement": "Mortality rate after 72 h", "setting": "[3]; concentration by mass 0.0003 %", "result": 12, "unit": "%"}, {"measurement": "Immobility rate after 48 h", "setting": "[3]; concentration by mass 0.0003 %", "result": 49, "unit": "%"}, {"measurement": "Immobility rate after 24 h", "setting": "[3]; concentration by mass 0.0003 %, aqueous solution", "result": 7, "unit": "%"}, {"measurement": "Mortality rate after 72 h", "setting": "[3]; concentration by mass 0.0015 %", "result": 45, "unit": "%"}, {"measurement": "Immobility rate after 48 h", "setting": "[3]; concentration by mass 0.0015 %", "result": 85, "unit": "%"}, {"measurement": "Immobility rate after 24 h", "setting": "[3]; concentration by mass 0.0015 %, aqueous solution", "result": 19, "unit": "%"}, {"measurement": "Mortality rate after 72 h", "setting": "[3]; concentration by mass 0.003 %", "result": 63, "unit": "%"}, {"measurement": "Immobility rate after 48 h", "setting": "[3]; concentration by mass 0.003 %", "result": 65, "unit": "%"}, {"measurement": "Immobility rate after 24 h", "setting": "[3]; concentration by mass 0.003 %, aqueous solution", "result": 49, "unit": "%"}]}, {"compound": "CBr", "note": "[methyl bromide]", "values": [{"measurement": "LC50 of the comparison fumigant", "setting": "[4]", "result": 0.1, "unit": "g×24 h/m^3"}]}]}
